Usually EC50 stands for the concentration at which the effect is half-maximal.

Data on five compounds can be found in article PMC8648660, “Multifunctional thiosemicarbazones targeting sigma receptors: in vitro and in vivo antitumor activities in pancreatic cancer models” (Cellular Oncology, 2021).

Data set [1] deals with GRP78, ATF6, IRE1 and PERK. Put plainly: qRT-PCR of ER stress markers in pancreatic cancer cells. The data set is classed as cell-based, human and murine. Particulars: 50 µM, 2 h. The procedure:
Total RNA was extracted using a phenol/chloroform method, after which 1 µg RNA was reverse-transcribed using an iScript Reverse Transcription Supermix kit according to the manufacturer’s instructions (Bio-Rad Laboratories). 25 ng cDNA was amplified using 10 µl of an IQ™ SYBR Green Supermix (Bio-Rad Laboratories). Primers were designed using qPrimer Depot software (http://primerdepot.nci.nih.gov/). qRT-PCR was carried out using an iQ^TM5 cycler (Bio-Rad Laboratories). The cycling conditions used were: 30 s at 95 °C, followed by 40 cycles of denaturation (15 s at 95 °C) and annealing/extension (30 s at 60 °C). The same cDNA preparations were used to quantify the expression of genes of interest and that of the housekeeping gene S14, which was used to normalize the gene expression levels. Relative quantitation of each sample was performed using Gene Expression Quantitation software (Bio-Rad Laboratories). The results were expressed in arbitrary units. For each gene, the expression level in untreated cells was arbitrarily set at “1”.
(In general: In qPCR the cycle at which signal appears reflects the starting amount.)

The subject of the next data set is MiaPaCa2 cells. The arrangement: method as in PMID 29287249. As to conditions: cited from earlier work.
For a further data set, the system named is PANC-1 cells. More on the design: method as in PMID 29287249. Particulars: cited from earlier work.
Another data set concerns AspC1 cells. The arrangement: method as in PMID 29287249. As to conditions: cited from earlier work.
The next data set deals with BxPC3 cells. More on the design: method as in PMID 29287249. Particulars: cited from earlier work.
A further data set has as its system KP02 cells. More on the design: method as in PMID 29287249. As to conditions: cited from earlier work.
Another data set concerns PANC02 cells. The arrangement: method as in PMID 29287249. As to conditions: cited from earlier work.
In a further data set the test system is HPDE cells. More on the design: method as in PMID 29287249. Particulars: read-out: Activity EC50, HPDE (normal cells); cited from earlier work.
A further data set relates to PANC-1 xenografts. The data set is described as follows: In vivo xenograft assay, PANC-1. As to conditions: for tumor growth: gemcitabine 20 mg/kg twice a week. The arrangement: species or system mice.
A further data set relates to MiaPaCa2 xenografts. Put plainly: In vivo xenograft assay, MiaPaCa2. The arrangement: species or system mice. Particulars: gemcitabine 20 mg/kg twice a week, 15 days.
The nature of data set [2]: Systemic toxicity and hematochemical parameters of treated PANC-1 tumor-bearing mice. Particulars: gemcitabine 20 mg/kg twice a week; mean ± SD.
Method: 2 × 10^5 PANC-1 or Mia-PaCa2 cells were inoculated subcutaneously in the right flank of 6-week old C57BL/6 female nude mice (Charles River Laboratories Italia, Calco), housed (5 per cage) under a 12 h light/dark cycle, with food and drinking water provided ad libitum. Tumor growth was measured daily by caliper, according to the equation (LxW^2)/2, where L = tumor length and W = tumor width. […] Tumor volumes and animal weights were monitored daily. Animals were euthanized at day 18 or 36 after randomization with zolazepam (0.2 ml/kg) and xylazine (16 mg/kg). […] Red blood cell (RBC) count, hemoglobin (Hb), white blood cell (WBC) count, platelet (PLT) count, lactate dehydrogenase (LDH), aspartate aminotransferase (AST), alanine aminotransferase (ALT), alkaline phosphatase (AP), creatinine and creatine phosphokinase (CPK) were measured in blood samples collected immediately after euthanasia, using commercially available kits from Beckman Coulter Inc (Beckman Coulter, Miami, FL, USA).
Blood was collected immediately after euthanasia and analyzed for red blood cells (RBC) count, hemoglobin (Hb), white blood cells (WBC) count, platelets (PLT) count, lactate dehydrogenase (LDH), aspartate aminotransferase (AST), alanine aminotransferase (ALT), alkaline phosphatase (AP), creatinine, creatine phosphokinase (CPK). Data are presented as means ± SD.
In data set [3] the test system is sigma-1 and sigma-2 receptor subtypes. More on the design: method as in PMID 24106081. Particulars: cited from earlier work.

Some results are limits rather than exact numbers.

Method for MiaPaCa2 xenografts: 2 × 10^5 PANC-1 or Mia-PaCa2 cells were inoculated subcutaneously in the right flank of 6-week old C57BL/6 female nude mice (Charles River Laboratories Italia, Calco), housed (5 per cage) under a 12 h light/dark cycle, with food and drinking water provided ad libitum. Tumor growth was measured daily by caliper, according to the equation (LxW^2)/2, where L = tumor length and W = tumor width. When tumors reached a volume of 100 mm^3, the mice (n = 8/group) were randomized in the following groups and treated daily for 15 days or 30 days intraperitoneally as reported: (1) Vehicle group (100 µl saline solution), (2) FA4^low group (750 nmol FA4 in 100 µl saline solution), (3) FA4^high group (1500 nmol FA4 in 100 µl saline solution) and (4) Gemcitabine group (20 mg/kg gemcitabine, twice a week). Tumor volumes and animal weights were monitored daily. Animals were euthanized at day 18 or 36 after randomization with zolazepam (0.2 ml/kg) and xylazine (16 mg/kg). Next, tumors were excised and paraffin-embedded. […] Quantification of the immunohistochemical analyses was performed using ImageJ software (https://imagej.nih.gov/). The staining intensities were expressed as arbitrary units and considered 1 in the vehicle group.
Method for PANC-1 xenografts: 2 × 10^5 PANC-1 or Mia-PaCa2 cells were inoculated subcutaneously in the right flank of 6-week old C57BL/6 female nude mice (Charles River Laboratories Italia, Calco), housed (5 per cage) under a 12 h light/dark cycle, with food and drinking water provided ad libitum. Tumor growth was measured daily by caliper, according to the equation (LxW^2)/2, where L = tumor length and W = tumor width. When tumors reached a volume of 100 mm^3, the mice (n = 8/group) were randomized in the following groups and treated daily for 15 days or 30 days intraperitoneally as reported: (1) Vehicle group (100 µl saline solution), (2) FA4^low group (750 nmol FA4 in 100 µl saline solution), (3) FA4^high group (1500 nmol FA4 in 100 µl saline solution) and (4) Gemcitabine group (20 mg/kg gemcitabine, twice a week). Tumor volumes and animal weights were monitored daily. Animals were euthanized at day 18 or 36 after randomization with zolazepam (0.2 ml/kg) and xylazine (16 mg/kg). Next, tumors were excised and paraffin-embedded. Sections were immuno-stained for cleaved caspase 3 (Cell Signalling Technology, Danvers, MA, USA) or with an anti-malondialdehyde antibody (Abcam), followed by a peroxidase-conjugated secondary antibody (Dako, Glostrup, Denmark). The sections were examined under a Leica DC100 microscope (Leica, Wetzlar, Germany). Quantification of the immunohistochemical analyses was performed using ImageJ software (https://imagej.nih.gov/). The staining intensities were expressed as arbitrary units and considered 1 in the vehicle group.

Turning to `CN(C)C(=S)N/N=C1\C(=O)Nc2ccccc21` [ACthio-1, (Z)-N,N-dimethyl-2-(2-oxoindolin-3-ylidene)hydrazinecarbothioamide], the “mRNA expression of ER stress markers GRP78, ATF6, IRE1, PERK” value (“mRNA expression” below) in data set [1] is recorded as “none of the markers was increased in the other cells”. The EC50 was 18.3 µM in the data set on MiaPaCa2 cells; above 100 µM in the data set with PANC-1 cells; 2.17 µM in the data set on AspC1 cells; 2.52 µM in the data set on BxPC3 cells; 2.83 µM in the data set with KP02 cells; 1.21 µM in the data set with PANC02 cells. For the same compound, the EC50 in the data set with HPDE cells is 10.5 µM.

Regarding `COc1cc2c(cc1OC)CN(CCCCN1C(=O)/C(=N\NC(=S)N(C)C)c3ccccc31)CC2` [MLP44, (Z)-2-(1-(4-(6,7-dimethoxy-3,4-dihydroisoquinolin-2(1H)-yl)butyl)-2-oxoindolin-3-ylidene)-N,N-dimethylhydrazinecarbothioamide], in data set [1], the “mRNA expression” value was “none of the markers was increased in the other cells”. Further, the EC50 in the data set with MiaPaCa2 cells is 14.6 µM; with PANC-1 cells, 14.6 µM; in the data set with AspC1 cells, 2.01 µM; in the data set on BxPC3 cells it was 2.34 µM; in the data set with KP02 cells, 6.92 µM; in the data set on PANC02 cells, 1.33 µM. In addition, the EC50 in the data set on HPDE cells is 9.5 µM.

For the compound `Nc1ccn([C@@H]2O[C@H](CO)[C@@H](O)C2(F)F)c(=O)n1` [gemcitabine], the tumor growth result in the data set with PANC-1 xenografts (15 days) is given as “ineffective against this tumor cell line”. Besides, in the data set with PANC-1 xenografts (30 days), the tumor growth entry is recorded as “not able to significantly reduce tumor growth”. Further, the “intratumor apoptosis (cleaved caspase 3) and lipid peroxidation” value in the data set with PANC-1 xenografts (gemcitabine, 30 days) is “low or undetectable”. Moreover, the tumor growth result in the data set with MiaPaCa2 xenografts was “MiaPaCa2 tumors were more sensitive to gemcitabine”. In data set [2], the ALT amounted to 36±12 U/l, the AP is given as 134±43 U/l, the AST is 142±18 U/l and the CPK is reported as 309±32 U/l. Further, in data set [2], the Hb came out at 11.03 ± 1.94 g/dL, the LDH was found to be 6704±832 U/l, the PLT is given as 931±165 x 10^3/µl and the RBC was 11.28±0.98 x 10^6/µl. Besides, in [2], the WBC is 12.18±2.39 x 10^3/µl.

On to `CN(C)C(=S)N/N=C1\C(=O)N(CCCCN2CCN(C3CCCCC3)CC2)c2ccccc21` [PS3, (Z)-2-[1-[4-(4-cyclohexylpiperazin-1-yl)butyl]-2-oxoindolin-3-ylidene]-N,N-dimethylhydrazinecarbothioamide], for which, in data set [1], the “mRNA expression” value is listed as “none of the markers was increased in the other cells”. In addition, the EC50 is 10.1 µM in the data set on MiaPaCa2 cells; 8.73 µM with PANC-1 cells; 3.86 µM in the data set on AspC1 cells; 6.15 µM in the data set on BxPC3 cells; 7.32 µM in the data set with KP02 cells; 1.17 µM in the data set on PANC02 cells. The EC50 in the data set with HPDE cells is 5.35 µM.

`Fc1ccc(-n2cc(CCCCN3CCC4(CC3)OCc3ccccc34)c3ccccc32)cc1` [siramesine]: the “binding to sigma-1 versus sigma-2 receptor subtypes” value in [3] was “binds equally well to the sigma-1 and sigma-2 receptor subtypes”.
